These results are taken from US7718653B2, “Pyrimidine derivatives for inhibiting Eph receptors” (AstraZeneca AB, priority 2007, dated 2010).

The experiment deals with T1, recombinant EphB4 (Homo sapiens, UniProt P54760).
T1 construct: amino acids 563-987; Swiss-Prot Acc; No. P54760; purchased ProQinase GmbH 0178-0000-3
T1 sequence (P54760 563-987): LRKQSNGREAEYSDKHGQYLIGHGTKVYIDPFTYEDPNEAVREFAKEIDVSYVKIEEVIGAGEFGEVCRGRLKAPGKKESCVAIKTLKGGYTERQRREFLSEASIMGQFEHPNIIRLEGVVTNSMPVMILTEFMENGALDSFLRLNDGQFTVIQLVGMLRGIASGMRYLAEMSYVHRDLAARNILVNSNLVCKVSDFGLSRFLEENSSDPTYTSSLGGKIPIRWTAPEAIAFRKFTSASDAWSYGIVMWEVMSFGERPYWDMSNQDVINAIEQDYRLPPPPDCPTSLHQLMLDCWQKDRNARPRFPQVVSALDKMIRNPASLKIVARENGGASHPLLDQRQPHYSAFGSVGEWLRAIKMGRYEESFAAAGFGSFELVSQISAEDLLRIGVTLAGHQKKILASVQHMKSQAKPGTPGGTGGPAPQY
Nature of the experiment: In vitro EphB4 enzyme assay (Alphascreen, phosphorylation of biotin-poly-GAT). Conditions: method of compound preparation not stated; read-out: IC50 in assay A. Type of experiment: biochemical. The method, then:
A) In vitro EphB4 Enzyme Assay
This assay detects inhibitors of EphB4-mediated phosphorylation of a polypeptide substrate using Alphascreen™ luminescence detection technology. Briefly, recombinant EphB4 was incubated with a biotinylated-polypeptide substrate (biotin-poly-GAT) in presence of magnesium-ATP. The reaction was stopped by addition of EDTA, together with streptavidin-coated donor beads which bind the biotin-substrate containing any phosphorylated tyrosine residues. Anti-phosphotyrosine antibodies present on acceptor beads bind to phosphorylated substrate, thus bringing the donor & acceptor beads into close proximity. Subsequent excitation of the donor beads at 680 nm generated singlet oxygen species that interact with a chemiluminescer on the acceptor beads, leading to light emission at 520-620 nm. The signal intensity is directly proportional to the level of substrate phosphorylation and thus inhibition is measured by a decrease in signal.
Aqueous Compound Preparation:
Acoustic Compound Preparation:
To ensure that each well contained a total of 120 nl DMSO the wells were all backfilled as required. […] The test range of compounds was 100× the required final concentration.
Assay plates were then incubated at room temperature for 1 hour.
For assays using compounds prepared via acoustic dispensing, the assay mix was adjusted such that the final assay volume of 12 ul contained the same concentration of reagent as 10 ul of assay mix used when aqueous compounds were tested.
The plates were sealed under natural lighting conditions, wrapped in aluminium foil and incubated in the dark for a further 20 hours.
The resulting assay signal was determined on the Perkin Elmer EnVision plate reader. The minimum value was subtracted from all values, and the signal plotted against compound concentration to generate IC50 data. The method used to generate the compound dilutions was recorded with the IC50 value in the database.
(In Alpha technology, singlet oxygen from a donor bead excites a nearby acceptor bead.)

As to `c1cc(Nc2ccnc(Nc3cc(N4CCOCC4)nc(N4CCOCC4)c3)n2)c2cn[nH]c2c1` [Example 3, N2-(2,6-dimorpholinopyridin-4-yl)-N4-(1H-indazol-4-yl)pyrimidine-2,4-diamine], the half-inhibitory concentration (IC50) was found to be 0.243 µM.

By IC50 is commonly meant the concentration that gives 50% inhibition.
